We go through five compounds from US12186283B2, “Bismuth-thiol compositions and methods of use” (Microbion Corporation, priority 2018, dated 2025).

For experiment [1], the system named is Candida spp. (C. parapsilosis, C. albicans, C. glabrata, C. tropicalis). Put plainly: Broth microdilution MIC, yeast (Example 11). The format is cell-based. (In broth dilution the organism is exposed to a series of concentrations in liquid medium.)
Experiment [2] concerns Candida spp. As to the kind of experiment: Broth microdilution MIC, yeast (Example 13), group statement and QC. The conditions noted are these: C. parapsilosis ATCC 22019, comparators, single value. The format is cell-based.
The test system of experiment [3] is Candida krusei. Put plainly: Broth microdilution MIC, yeast (Example 13). The settings on record: C. krusei ATCC 6258 (QC, Table 110), comparators, single value. The format is cell-based.
Experiment [4] has as its system Aspergillus spp. Put plainly: Broth microdilution MIC/MEC, mold (Example 13). The format is cell-based.
The test system of experiment [5] is E. coli ATCC 25922. Put plainly: Broth microdilution MIC, QC organism (Example 13, Table 110). The format is cell-based, Escherichia coli. An excerpt: (§1) MECs were only reported where observed.
For experiment [6], the system named is S. aureus ATCC 29213. Described as above. The format is cell-based, Staphylococcus aureus.
Description: as §1

For experiment [7], the system named is Candida spp. (C. parapsilosis, C. albicans, C. glabrata, C. tropicalis). The conditions noted are these: C. parapsilosis MMX 2323 (ATCC 22019), cited from earlier work.
For experiment [8], the system named is Candida spp. The conditions noted are these: C. parapsilosis ATCC 22019, CLSI established QC range, cited from earlier work.
The subject of experiment [9] is Candida krusei. The settings on record: C. krusei ATCC 6258, CLSI established QC range, cited from earlier work.
In experiment [10] the test system is Aspergillus spp. The settings on record: cited from earlier work.
Experiment [11] relates to Enterococcus spp. (E. faecalis, E. faecium). As to the kind of experiment: Broth microdilution MIC (Example 11). The format is cell-based. The conditions noted are these: VRE, VRE.
The test system of experiment [12] is Escherichia coli. The settings on record: E. coli MMX 102 (ATCC 25922); cited from earlier work.
In experiment [13] the test system is Pseudomonas aeruginosa. The conditions noted are these: P. aeruginosa MMX 103 (ATCC 27853); cited from earlier work.
The subject of experiment [14] is Staphylococcus aureus (MRSA). The conditions noted are these: S. aureus MMX 101 (ATCC 29213); cited from earlier work.
Experiment [15] relates to beta-hemolytic streptococci (S. pyogenes, S. agalactiae). Put plainly: Broth microdilution MIC (Example 11). It is filed as cell-based, Streptococcus pyogenes, Streptococcus agalactiae.
In experiment [16] the test system is S. pneumoniae (pneumococci). The settings on record: S. pneumoniae MMX 6837 (ATCC 49619); cited from earlier work.
Setting [17] is: A. flavus ATCC 204304 (QC, Table 110).
The mark [18] stands for this setting: A. fumigatus ATCC MYA-3626 (QC, Table 110).
Where [19] appears, read: A. flavus ATCC 204304, CLSI established QC range.
Where [20] appears, read: A. fumigatus ATCC MYA-3626, CLSI established QC range.

Converted amounts (≈) assume the structure as drawn. Like-named read-outs stand apart in the source and are kept apart here.

The term MIC denotes the smallest concentration in the dilution series that meets the test's criterion for growth inhibition. As for `C[C@@H]1[C@H](O)[C@@H](C)/C=C/C=C/C=C/C=C/C=C/C=C/C=C/[C@H](O[C@@H]2O[C@H](C)[C@@H](O)[C@H](N)[C@@H]2O)C[C@@H]2O[C@](O)(C[C@@H](O)C[C@@H](O)[C@H](O)CC[C@@H](O)C[C@@H](O)CC(=O)O[C@H]1C)C[C@H](O)[C@H]2C(=O)O` [Amphotericin B], the MIC in experiment [1] (C. albicans MMX 7039, Sensitive, 24 hr) was 0.5, 0.5 μg/mL; in experiment [1] (C. albicans MMX 7039, Sensitive, 48 hr) it was 0.5, 0.5 μg/mL; in [1] (C. albicans MMX 7055, Sensitive, 24 hr) it was 0.25 µg/mL (≈ 0.271 µM); in [1] (C. albicans MMX 7055, Sensitive, 48 hr) it was 0.5 µg/mL (≈ 0.541 µM); in experiment [1] (C. glabrata MMX 7086, FLU^R, 24 hr), 0.5 µg/mL (≈ 0.541 µM); in [1] (C. glabrata MMX 7086, FLU^R, 48 hr), 1 µg/mL (≈ 1.08 µM). In addition, the minimum inhibitory concentration (MIC) in [1] (C. glabrata MMX 7318, FLU^R, 24 hr) is 0.5 µg/mL (≈ 0.541 µM); in [1] (C. glabrata MMX 7318, FLU^R, 48 hr) it was 1 µg/mL (≈ 1.08 µM); in experiment [1] (C. parapsilosis MMX 2323 (ATCC 22019), QC, 24 hr), 0.5 µg/mL (≈ 0.541 µM); in experiment [1] (C. parapsilosis MMX 2323 (ATCC 22019), QC, 48 hr), 1 µg/mL (≈ 1.08 µM); in experiment [1] (C. parapsilosis MMX 7370, FLU^R, 24 hr), 0.5 µg/mL (≈ 0.541 µM); in experiment [1] (C. parapsilosis MMX 7370, FLU^R, 48 hr), 1 µg/mL (≈ 1.08 µM). Also, the MIC in experiment [1] (C. parapsilosis MMX 7555, FLU^R, 24 hr) is 0.5, 0.5 μg/mL; in experiment [1] (C. parapsilosis MMX 7555, FLU^R, 48 hr), 0.5, 0.5 μg/mL; in experiment [1] (C. tropicalis MMX 7247, FLU^R, 24 hr), 0.5 µg/mL (≈ 0.541 µM); in experiment [1] (C. tropicalis MMX 7247, FLU^R, 48 hr), 1 µg/mL (≈ 1.08 µM); in experiment [1] (C. tropicalis MMX 7248, FLU^R, 24 hr), 0.5 µg/mL (≈ 0.541 µM); in experiment [1] (C. tropicalis MMX 7248, FLU^R, 48 hr), 1 µg/mL (≈ 1.08 µM). In addition, the MIC in experiment [1] (C. tropicalis MMX 7360, FLU^R, 24 hr) was 0.5, 0.5 μg/mL; in [1] (C. tropicalis MMX 7360, FLU^R, 48 hr), 0.5, 0.5 μg/mL. The MIC 24 hr is 0.5 µg/mL (≈ 0.541 µM) in experiment [2]; 0.5 µg/mL (≈ 0.541 µM) in [3]; 0.5 µg/mL (≈ 0.541 µM) in experiment [4] (setting [17]); 0.5 µg/mL (≈ 0.541 µM) in experiment [4] (setting [18]); greater than 64 µg/mL in experiment [5]; greater than 64 µg/mL in experiment [6]. Further, the MIC 48 hr in [2] came out at 0.5 µg/mL (≈ 0.541 µM); in experiment [3], 0.5 µg/mL (≈ 0.541 µM); in [4] (setting [17]), 1 µg/mL (≈ 1.08 µM); in [4] (setting [18]), 1 µg/mL (≈ 1.08 µM). In addition, the “MIC, CLSI QC range” value is 0.25 to 2 µg/mL in experiment [7] (24 hr) and 0.5 to 4 µg/mL in experiment [7] (48 hr). In addition, the “QC Range 24 hr” value in [8] is given as 0.25-2; in experiment [9] it was 0.5-2. For the same compound, the “QC Range 48 hr” value in experiment [8] is on record as 0.5-4; in experiment [9], 1-4; in experiment [10] (setting [19]) it was 0.5-4; in [10] (setting [20]), 0.5-4.

`CC(C)(O/N=C(\C(=O)N[C@@H]1C(=O)N2C(C(=O)[O-])=C(C[n+]3ccccc3)CS[C@H]12)c1csc(N)n1)C(=O)O` [Ceftazidime]: in [11] (Enterococcus faecium, E. faecium MMX 485, vanA, LevR, CipR, EryR, read-out: MIC), the MIC was greater than 32 µg/mL. Further, the “CLSI QC range (MIC)” value is given as “(0.06-0.5) μg/mL” in experiment [12], “(1-4)” in experiment [13] and “(4-16) μg/mL” in experiment [14].

As for `C[C@@H](c1ncncc1F)[C@](O)(Cn1cncn1)c1ccc(F)cc1F` [Voriconazole], the values for the MIC 48 hr in [2] and in [3] were 0.12 µg/mL (≈ 0.344 µM) and 0.5 µg/mL (≈ 1.43 µM), respectively. The MIC 24 hr in experiment [3] was 0.12 µg/mL (≈ 0.344 µM); in [4] (setting [17]), 0.12 µg/mL (≈ 0.344 µM); in experiment [4] (setting [18]) it was 0.25 µg/mL (≈ 0.716 µM); in [5], greater than 64 µg/mL; in experiment [6] it was greater than 64 µg/mL. The entries for the “QC Range 24 hr” value in [8] and in [9] were 0.015-0.12 and 0.06-0.5, respectively. Moreover, the “QC Range 48 hr” value is 0.03-0.25 in [8], 0.12-1 in experiment [9], 0.5-4 in experiment [10] (setting [19]) and 0.25-1 in experiment [10] (setting [20]).

As for `OC(Cn1cncn1)(Cn1cncn1)c1ccc(F)cc1F` [fluconazole, reference compound], the MIC 24 hr in [2] was 1 µg/mL (≈ 3.27 µM); in experiment [3], 16 µg/mL (≈ 52.2 µM); in experiment [5] it was greater than 64 µg/mL; in experiment [6], greater than 64 µg/mL. In addition, in experiment [3], the MIC 48 hr is 32 µg/mL (≈ 104 µM). In addition, the result in experiment [4] (Aspergillus spp.) was inactive. Moreover, the results for the “MIC, CLSI QC range” value in experiment [7] (24 hr) and in [7] (48 hr) were 0.5 to 4 µg/mL and 1 to 4 µg/mL, respectively. Also, the “QC Range 24 hr” value is reported as 0.5-4 in experiment [8] and 8-64 in [9]. Further, the “QC Range 48 hr” value in [8] is 1-4; in experiment [9] it was 16-128.

For `CN[C@H](CC(C)C)C(=O)N[C@H]1C(=O)N[C@@H](CC(N)=O)C(=O)N[C@H]2C(=O)N[C@H]3C(=O)N[C@H](C(=O)N[C@H](C(=O)O)c4cc(O)cc(O)c4-c4cc3ccc4O)[C@H](O)c3ccc(c(Cl)c3)Oc3cc2cc(c3O[C@@H]2O[C@H](CO)[C@@H](O)[C@H](O)[C@H]2O[C@H]2C[C@](C)(N)[C@H](O)[C@H](C)O2)Oc2ccc(cc2Cl)[C@H]1O` [vancomycin, reference compound], the MIC in [11] (E. faecalis MMX 8961, LevR, CipR, EryR) was greater than 64 µg/mL; in experiment [11] (E. faecalis MMX 8962, LevR, CipR, EryR) it was greater than 64 µg/mL; in experiment [11] (E. faecium MMX 485, vanA, LevR, CipR, EryR), greater than 64 µg/mL; in experiment [11] (Enterococcus faecalis), greater than 64 µg/mL; in experiment [11] (Enterococcus faecium), greater than 64 µg/mL; in [15] (S. agalactiae MMX 3741, ERY^R CC^R), 0.5 µg/mL (≈ 0.345 µM). For the same compound, the MIC in experiment [15] (S. agalactiae MMX 3743, ERY^R CC^R) is 0.5 µg/mL (≈ 0.345 µM); in [15] (S. agalactiae MMX 4077, ERY^R CC^R) it was 0.5 µg/mL (≈ 0.345 µM); in [15] (S. agalactiae MMX 4079, ERY^R CC^R Pen^R MEM^R) it was 2 µg/mL (≈ 1.38 µM); in [15] (S. agalactiae MMX 4086, ERY^R CC^R) it was 1 µg/mL (≈ 0.69 µM). Besides, the “CLSI QC range (MIC)” value in experiment [14] is listed as “(0.5-2) μg/mL”. Also, the “MIC, CLSI QC range” value in experiment [16] is reported as “(0.12-0.5) μg/mL”.
